Laboratory results published in US5688805A, “Tricyclic derivatives, compositions and methods of use” (Schering Corporation, priority 1995, dated 1997).

How the values were obtained:
[1] = test system: TNF-α; experiment: In Vitro Study: Inhibition of LPS-Induced TNF-α Production From the Murine Cell Line WEHI-265; type: cell-based; settings: for inhibition at 10 µM: Mus musculus, WEHI-265 cells, LPS, 20-24 hours
Protocol: This test procedure is a standard test used to determine anti-TNF-α activity and to evaluate the usefulness of said compounds for counteracting the biological effects of TNF-α.
In Vitro Study: Inhibition of LPS-Induced TNF-α Production From the Murine Cell Line WEHI-265
1) Cells (obtained from cell cultures containing ≤10^6 cells/ml) are suspended at 0.2×10^6 cells/ml in complete medium (RPMI1640, with 10% FCS, 10^-5 M 2-ME, 2 mM glutamine and 10 mM HEPES buffer) and plated in CoStar 24 well plates (1.0 ml/well).
2) Compounds are dissolved in the appropriate vehicle at 400 times the concentration to be tested, and 5 μl of compound is added to the wells.
3) LPS (from E. coli 0111:B4) is diluted to 6 μg/ml and 1.0 ml is added to wells.
4) Plates are incubated 20-24 hours in 37° C. CO2 incubator.
5) Supernatant fluids are collected and analyzed for TNF content as described in J. lmmunol., 142:3884.

[2] = test system: TNF; experiment: In Vivo Study: Inhibition of LPS-Induced Serum TNF; design: species or system Mice (C57BI/6J males); settings: Mus musculus, 1.5 h; 25 mg/kg orally or i.p. one hour before LPS (50 μg i.p.); bled 90 min after LPS; serum TNF by ELISA
Protocol: In addition to the in vitro test described above, the following in vivo test was also performed on several of the compounds of the present invention.
2. In Vivo Study: Inhibition of LPS-Induced Serum TNF
1) Mice (C57BI/6J males, 6-8 weeks of age) are dosed with the indicated compound (dissolved in CMC suspension vehicle; compounds are given orally or i.p. one hour before LPS challenge).
3) Mice are bled 90 min after LPS challenge.
4) Sera are analyzed for TNF content by ELISA as described in J. Immunol.

[3] = test system: LPS/Galactosamine-Induced Lethality; experiment: In Vivo Study: Inhibition of LPS/Galactosamine-Induced Lethality; design: species or system Mice (C57BI/6J males); settings: 25 mg/kg orally or i.p. one hour before LPS (100 ng) and d-galactosamine (8 mg) i.p.; survival at 24 hours
Protocol: This test procedure is a standard test used to determine activity against septic shock.
3. In Vivo Study: Inhibition of LPS/Galactosamine-Induced Lethality
Mice (C57BI/6J males, 6-8 weeks of age) are dosed with the indicated compound (dissolved in CMC suspension vehicle; compounds are given orally or i.p. one hour before challenge with LPS and d-galactosamine).
Mice are challenged i.p. with a mixture of LPS (from E. coli 0111:B4; 100 ng) and d-galactosamine (8 mg).
Survival is determined 24 hours after challenge. See procedure

| SMILES | inhibition at 10 µM [1] [%] | inhibition in vivo at 25 mg/kg [2] [%] | # DEAD/TOTAL AT 25 MG/KG [3] | anti-TNF-α activity (in words) ([1]; general statement) |
| --- | --- | --- | --- | --- |
| C=CCC1(C2=CCN(C)CC2)c2ccccc2CCc2ccccc21 [Compound IB, 4-[10,11-dihydro-5-(2-propenyl)-5H-dibenzo[a,d]cyclohepten-5-yl]-1-methyl-1,2,5,6-tetrahydropyridine] | 70 | 80 | 0/8 | – |
| c1ccc2c(c1)CCc1ccccc1C2C1CCCNC1 (stereo not drawn) [Compound ID, 3-(10,11-dihydro-5H-dibenzo[a,d]cyclohepten-5-yl)-piperidine acetic acid] | 51 | – | – | – |
| C=CCC1(C2=CCNCC2)c2ccccc2CCc2ccccc21 [Compound IE, 4-[10,11-dihydro-5-(2-propenyl)-5H-dibenzo[a,d]cyclohepten-5-yl]-1,2,5,6-tetrahydro(1H)-pyridine] | 61 | – | 7/8 | – |
| CCCC1(C2=CCN(C)CC2)c2ccccc2CCc2ccccc21 [Compound IF, 4-[10,11-dihydro-5-propyl-5H-dibenzo[a,d]cyclohepten-5-yl]-1-methyl-1,2,5,6-tetrahydropyridine] | 28 | 50 | 5/8 | – |
| C=CCC1(C2=CCN(C(C)=O)CC2)c2ccccc2CCc2ccccc21 [Compound IG, 1-acetyl-4-[10,11-dihydro-5-(2-propenyl)-5H-dibenzo[a,d]cyclohepten-5-yl]-1,2,5,6-tetrahydro-1H-pyridine] | 27 | – | – | – |
| CCCC1(C2CCN(C)CC2)c2ccccc2CCc2ccccc21 [Compound IJ, 4-[10,11-dihydro-5-propyl-5H-dibenzo[a,d]cyclohepten-5-yl]-1-methylpiperidine] | 55 | – | – | – |
| CN1CC=C(C2c3ccccc3CCc3ccccc32)CC1 [Compound IL, 4-(10,11-dihydro-5H-dibenzo[a,d]cyclohepten-5-yl)-1-methyl-1,2,5,6-tetrahydropyridine] | 23 | 58 | 1/9 | – |
| C=CCC1(C2=CC[N+](C)(C)CC2)c2ccccc2CCc2ccccc21.[I-] [Compound IM, 4-[10,11-dihydro-5-(2-propenyl)-5H-dibenzo[a,d]cyclohepten-5-yl]-1,1-dimethyl-1,2,5,6-tetrahydropyridinium iodide] | 8 | 27 | 2/11 | – |
| C=CCC1(C2=CCN(Cc3ccccc3)CC2)c2ccccc2CCc2ccccc21 [Compound IN, 4-[10,11-dihydro-5-(2-propenyl)-5H-dibenzo[a,d]cyclohepten-5-yl]-1-(phenylmethyl)-1,2,5,6-tetrahydro-1H-pyridine] | 25 | 42 | 10/10 | – |
| C=CCC1(C2=CCN(C(C)C)CC2)c2ccccc2CCc2ccccc21 [Compound IP] | 62 | 28 | 6/10 | – |
| CN1CCCC(C2c3ccccc3CCc3ccccc32)C1 (stereo not drawn) [Compound IR, 3-(10,11-dihydro-5H-dibenzo[a,d]cyclohepten-5-yl)-1-methyl-piperidine] | 60 | – | – | – |
| C[N+]1(C)CC=C(C2c3ccccc3CCc3ccccc32)CC1 [Compound IY, 4-(10,11-dihydro-5H-dibenzo[a,d]cyclohepten-5-yl)-1,1-dimethyl-1,2,5,6-tetrahydropyridinium iodide] | 12 | – | – | – |
| CN1CCC(C2c3ccccc3CCc3ccccc32)CC1 [Compound K, reference compound] | 17 | 82 | 0/10 | has anti-TNF-α activity |
| C=CCC1(C2=CCN(C)CC2)c2ccccc2CCc2ccc(Cl)cc21 (stereo not drawn) [IA] | 80 | – | – | – |
| C=CCC1(C2=CCN(C(=O)OCC)CC2)c2ccccc2CCc2ccccc21 [IC] | 20 | – | 4/8 | – |
| C=CCC1(C2=CCN(C)CC2)c2ccccc2C=Cc2ccccc21 [IH] | 6 | 8 | 4/9 | – |
| CN1CC=C(C2(Cc3ccccc3)c3ccccc3CCc3ccccc32)CC1 [IK] | 61 | 45 | 5/9 | – |
| CC(C)=CCC1(C2=CCN(C)CC2)c2ccccc2CCc2ccccc21 [IQ] | 62 | 28 | 4/10 | – |
| CN1CC=C(C2(C)c3ccccc3CCc3ccccc32)CC1 [IS] | 61 | 26 | – | – |
| CC1(C2=CC[N+](C)(C)CC2)c2ccccc2CCc2ccccc21 [IT] | 9 | 3 | – | – |
| C=CCC1(C2=CCN(C)CC2)c2ccccc2CCc2cccnc21 (stereo not drawn) [IX] | 38 | 56 | 9/9 | – |
